Laboratory results as given in patent publication US20150336948A1, “Isotopically Labeled Biaryl Urea Compounds” (Merck Sharp & Dohme Corp., priority 2012, published 2015).
Where two headings read alike, the source gives them in different places.

Legend:
[1] = biological target: T1, In Vitro Assembled Tau filaments (full length tau 4R2N, T40 isoform) (Homo sapiens, UniProt P10636); test: Displacement binding assay with in vitro assembled tau filaments; conditions: 0.4 uM tau filaments
T1 construct: full length tau monomer (4R2N, T40 isoform)
Method: In Vitro assembled tau filaments were prepared similarly to Barghorn et al, Methods Mol Biol. 2005, 299, 35-51.
Briefly, Twenty micromolar (uM) of full length tau monomer (4R2N, T40 isoform), was incubated at 37 degrees shaking for 14 days with 50 uM heparin, 2 mM DTT, and 0.04% sodium azide in 100 mM Sodium Acetate (NaOAC) buffer pH7.0. All concentrations listed are final concentrations. Samples of the mixture were taken at 0, 10, and 14 days, and filament formation was examined using Thioflavin T binding compared to a control sample of filaments.
For the displacement binding assay, compound dilutions (1000×) were added into the 96-well plate (150 nL per well). 100% (1 uM self-block (unlabeled Compound—Example 1 or Example 4 dependent on the ^3H-labeled input compound—Example 6 or 7, respectively)) and 0% (DMSO) controls were included in each assay plate. In Vitro Assembled Tau filaments diluted in assay buffer (PBS+0.1% BSA) were added at a final concentration of 0.4 uM per well. Subsequently, either ^3H compound of Example 7 or ^3H compound of Example 6 was added to each well at a final concentration of 8 nM. Incubation was carried out at room temperature (25° C.) for 90 minutes, and then the assay samples were filtered onto GF/B filter plates that had been blocked at least 1 hour with 50 uL 0.2% PEI using a PerkinElmer Filtermate 96-well plate harvester, washing 6 times with ice cold buffer (5 mM Tris, pH 7.4). Plates were dried in a vacuum oven at 37° C. for 1 hour, then plates were sealed on the back, and 50 ul of Microscint-20 was added to each well. The tops of the plates were sealed, and then plates were read in a PerkinElmer TopCount. Data analysis was performed using internally developed software (Assay Data Analyzer).

NFTs = test: In vitro autoradiography, human AD brain slice, hippocampus (NFTs, PHF6 stain on adjacent slice); format: binding
Method: (§1) To assess presence of amyloid plaques and NFTs in the tested human brain samples, the adjacent human AD brain slices were used for autoradiography (ARG) and immunohistochemistry (IHC) studies. ARG was done using isotopically labeled compounds which bind selectively to amyloid plaques or NFTs. IHC was performed with antibodies for amyloid-beta (Aβ) (6E10 (Covance)) and phosphorylated tau (p-tau) (PHF6 (Covance)). Tissue homogenate binding was performed using human AD brain homogenates of cerebral cortex. Human brains from donor without neurological disorder were used as control in the same study. […]
(§2) The frozen human brain samples of Alzheimer's disease (AD) and non-AD were purchased from Analytic Biological Services Inc. Frozen brain slices (20 μm thickness) were prepared using a cryostat (Leica CM3050) and kept in sequential order. […] Total binding of radioligand in a brain slices was defined in the absence of competitor, and non-specific binding (NSB) was determined in the presence of competitor (1.0 μM unlabeled self block). […] After one week exposure, the plates were scanned in Fuji BAS 5000 Scanner, and the scanned images were analyzed using MCID 7.0 software. [^3H]-microscales (Amersham Biosciences, GE), were used for quantification of radioligand binding density. FIGS. 3 and 4 have ARG images detected through this method.

amyloid plaques = test: In vitro autoradiography, human AD brain cortex slice (amyloid plaques, 6E10 stain on adjacent slice); format: binding; conditions: adjacent slice 6E10 positive
Method: as §1, §2

[2] = radioligand [3H] Example 7 at 8 nM, read-out: IC50, displacement of [3H] compound of Example 7 from in vitro assembled tau filaments

T1 sequence (P10636 1-441 isoform P10636-8): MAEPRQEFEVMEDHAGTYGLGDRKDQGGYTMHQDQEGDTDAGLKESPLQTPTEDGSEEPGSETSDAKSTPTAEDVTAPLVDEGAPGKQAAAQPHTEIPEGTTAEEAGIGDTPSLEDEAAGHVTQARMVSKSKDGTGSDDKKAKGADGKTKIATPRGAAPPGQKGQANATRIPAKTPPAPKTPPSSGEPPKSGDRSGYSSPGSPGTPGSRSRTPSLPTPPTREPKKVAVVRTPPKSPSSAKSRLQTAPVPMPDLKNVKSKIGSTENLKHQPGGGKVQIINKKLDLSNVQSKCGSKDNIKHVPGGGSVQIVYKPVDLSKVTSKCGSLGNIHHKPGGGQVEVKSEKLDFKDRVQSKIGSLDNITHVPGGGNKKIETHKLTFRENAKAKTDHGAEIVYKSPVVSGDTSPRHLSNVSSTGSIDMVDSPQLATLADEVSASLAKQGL

COc1ccccc1NC(=O)Nc1ccc(-c2cn(C)c3cnccc23)cc1 [Example 1, 1-(2-methoxyphenyl)-3-(4-(1-methyl-1H-pyrrolo[2,3-c]pyridin-3-yl)phenyl)urea]
IC50 ([1]; radioligand [3H] Example 6 at 8 nM, self-block, read-out: apparent IC50, inhibition of [3H] compound of Example 6 binding to in vitro assembled filaments): 3 nM | IC50 [1, 2]: 13.6 nM

COc1ccccc1NC(=O)Nc1ccc(-c2cnn3c2CCC3)cc1 [Example 2, 1-(4-(5,6-dihydro-4H-pyrrolo[1,2-b]pyrazol-3-yl)phenyl)-3-(2-methoxyphenyl)urea]
IC50 [1, 2]: 25.1 nM

COc1ccccc1NC(=O)Nc1ccc(-c2cnn(C)c2)cc1 [Example 3, 1-(2-methoxyphenyl)-3-(4-(1-methyl-1H-pyrazol-4-yl)phenyl)urea]
IC50 [1, 2]: 33.6 nM

COc1ccccc1NC(=O)Nc1ccc(-c2cn(C)c3cnccc23)nc1 [Example 4, 1-(2-methoxyphenyl)-3-(6-(1-methyl-1H-pyrrolo[2,3-c]pyridin-3-yl)pyridin-3-yl)urea]
IC50 [1, 2]: 20.2 nM

Cn1cc(-c2ccc(NC(=O)Nc3ccccc3O)cn2)c2ccncc21 [Example 5, 1-(2-hydroxyphenyl)-3-(6-(1-methyl-1H-pyrrolo[2,3-c]pyridin-3-yl)pyridin-3-yl)urea]
IC50 [1, 2]: 92 nM

[3H]c1cc(-c2cn(C)c3cnccc23)cc([3H])c1NC(=O)Nc1c([3H])cccc1OC [Example 6, [^3H]-(2-methoxyphenyl)-3-(4-(1-methyl-1H-pyrrolo[2,3-c]pyridin-3-yl)phenyl)urea]
autoradiographic binding pattern compared with PHF6 stain of NFTs in hippocampus (NFTs; 5 nM radioligand, human AD brain slice, adjacent slice IHC): consistent with the autoradiographic binding pattern | specificity for Tau over Aβ (ARG evidence) (NFTs; human AD brain slices, FIGS. 3 and 4): measurable specificity | binding to amyloid plaques in cortex region (autoradiography) (amyloid plaques): lack of
